Test results taken from ChEMBL document CHEMBL5346964, “Discovery of LNP1892: A Precision Calcimimetic for the Treatment of Secondary Hyperparathyroidism” (J Med Chem, 2023).

How the values were obtained:
[1] = target: T1, Extracellular calcium-sensing receptor (Homo sapiens, UniProt P41180); assay: Agonist activity at human CaSR expresssed in HEK293 cells in presence of glucose by Fluo4NW dye based FLIPR assay; format: functional, cell-based
T1 sequence (P41180 whole entry): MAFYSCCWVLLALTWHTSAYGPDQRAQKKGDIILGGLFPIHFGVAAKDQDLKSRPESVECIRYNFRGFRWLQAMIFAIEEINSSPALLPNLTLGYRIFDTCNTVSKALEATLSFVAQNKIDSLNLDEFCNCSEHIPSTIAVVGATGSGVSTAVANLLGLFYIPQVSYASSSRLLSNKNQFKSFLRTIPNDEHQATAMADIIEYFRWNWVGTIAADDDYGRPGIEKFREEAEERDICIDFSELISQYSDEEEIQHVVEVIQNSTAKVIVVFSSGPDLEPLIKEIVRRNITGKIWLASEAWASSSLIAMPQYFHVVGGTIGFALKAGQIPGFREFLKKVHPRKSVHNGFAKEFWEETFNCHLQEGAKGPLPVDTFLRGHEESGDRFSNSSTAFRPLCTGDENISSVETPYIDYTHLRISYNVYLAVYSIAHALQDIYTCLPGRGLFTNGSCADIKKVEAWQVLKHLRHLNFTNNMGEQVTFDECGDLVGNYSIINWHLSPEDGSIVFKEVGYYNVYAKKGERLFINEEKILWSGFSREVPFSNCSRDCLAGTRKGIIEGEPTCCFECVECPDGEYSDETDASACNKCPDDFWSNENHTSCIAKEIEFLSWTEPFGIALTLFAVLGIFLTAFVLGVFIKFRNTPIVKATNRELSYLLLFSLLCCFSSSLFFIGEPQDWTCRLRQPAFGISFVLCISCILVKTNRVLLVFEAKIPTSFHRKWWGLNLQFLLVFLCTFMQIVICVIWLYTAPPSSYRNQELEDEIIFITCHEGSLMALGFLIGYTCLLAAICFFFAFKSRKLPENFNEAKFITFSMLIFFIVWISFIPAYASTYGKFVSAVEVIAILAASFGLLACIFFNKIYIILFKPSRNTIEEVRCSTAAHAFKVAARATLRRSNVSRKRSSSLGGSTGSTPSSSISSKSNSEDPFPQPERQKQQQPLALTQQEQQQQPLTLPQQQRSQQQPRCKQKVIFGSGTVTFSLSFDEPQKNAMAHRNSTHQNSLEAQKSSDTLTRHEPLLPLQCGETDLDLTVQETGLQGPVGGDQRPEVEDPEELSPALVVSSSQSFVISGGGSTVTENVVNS

CYP2D6 [2] = target: T2, CYP2D6 (Homo sapiens, UniProt P10635); assay: Inhibition of CYP2D6 in human liver microsomes at 1 uM preincubated for 5 mins followed by NADPH addition by LC-MS/MS analysis relative to control; format: ADME, Microsome
CYP2D6 [3] = target: T2, CYP2D6; assay: Inhibition of CYP2D6 in human liver microsomes at 10 uM preincubated for 5 mins followed by NADPH addition by LC-MS/MS analysis relative to control; format: ADME, Microsome
hERG [4] = target: T3, hERG (Homo sapiens, UniProt Q12809); assay: Inhibition of hERG at 1 uM relative to control; format: toxicity
hERG [5] = target: T3, hERG; assay: Inhibition of hERG at 10 uM relative to control; format: toxicity
[6] = Microsomal stability in rat liver microsomes assessed as parent compound remaining at 1 uM measured upto 30 mins in presence of NADPH by LC-MS/MS analysis; format: ADME, Microsome; conditions: read-out: Stability
[7] = Microsomal stability in human liver microsomes assessed as parent compound remaining at 1 uM measured upto 30 mins in presence of NADPH by LC-MS/MS analysis; format: ADME, Microsome; conditions: liver microsomes, read-out: Stability
Rattus norvegicus = assay: Effect on parathyroid hormone in po dosed overnight fasted Sprague-Dawley rat assessed as reduction in plasma PTH level measured after 0.5 to 6 hrs of post treatment by sandwich ELISA analysis; format: functional, organism-based; conditions: dose 3-30 mg/kg, time 0.5-6 hrs

T3 sequence (Q12809 whole entry): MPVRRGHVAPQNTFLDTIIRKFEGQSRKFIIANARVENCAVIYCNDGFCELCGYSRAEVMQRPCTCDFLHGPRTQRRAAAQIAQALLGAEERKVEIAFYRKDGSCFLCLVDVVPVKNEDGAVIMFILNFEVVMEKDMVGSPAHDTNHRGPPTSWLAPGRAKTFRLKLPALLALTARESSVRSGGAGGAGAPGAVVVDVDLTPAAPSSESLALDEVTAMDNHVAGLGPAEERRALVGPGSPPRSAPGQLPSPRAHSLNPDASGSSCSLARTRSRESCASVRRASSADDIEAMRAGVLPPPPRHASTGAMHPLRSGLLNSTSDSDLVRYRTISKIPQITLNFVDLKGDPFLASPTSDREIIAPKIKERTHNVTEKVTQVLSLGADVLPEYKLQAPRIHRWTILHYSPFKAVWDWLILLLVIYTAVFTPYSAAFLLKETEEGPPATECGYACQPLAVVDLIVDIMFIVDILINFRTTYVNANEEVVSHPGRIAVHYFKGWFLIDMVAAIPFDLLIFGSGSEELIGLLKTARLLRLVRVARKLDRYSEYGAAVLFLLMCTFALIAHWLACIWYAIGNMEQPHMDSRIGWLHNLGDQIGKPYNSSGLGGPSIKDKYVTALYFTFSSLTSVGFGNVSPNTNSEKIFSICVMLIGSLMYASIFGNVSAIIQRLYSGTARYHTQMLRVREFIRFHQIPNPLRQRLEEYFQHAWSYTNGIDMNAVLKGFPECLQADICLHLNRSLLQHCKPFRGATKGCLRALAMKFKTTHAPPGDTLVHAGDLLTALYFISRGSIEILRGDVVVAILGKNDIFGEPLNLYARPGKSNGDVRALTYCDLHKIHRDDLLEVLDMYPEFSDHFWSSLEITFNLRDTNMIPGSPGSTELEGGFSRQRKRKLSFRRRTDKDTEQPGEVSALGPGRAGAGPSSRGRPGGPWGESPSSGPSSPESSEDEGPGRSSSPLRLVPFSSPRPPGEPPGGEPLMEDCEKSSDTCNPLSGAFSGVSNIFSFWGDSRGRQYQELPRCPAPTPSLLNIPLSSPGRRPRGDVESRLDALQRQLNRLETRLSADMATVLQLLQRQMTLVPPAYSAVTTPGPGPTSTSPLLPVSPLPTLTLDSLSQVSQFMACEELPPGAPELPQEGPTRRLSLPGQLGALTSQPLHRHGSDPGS
T2 sequence (P10635 whole entry): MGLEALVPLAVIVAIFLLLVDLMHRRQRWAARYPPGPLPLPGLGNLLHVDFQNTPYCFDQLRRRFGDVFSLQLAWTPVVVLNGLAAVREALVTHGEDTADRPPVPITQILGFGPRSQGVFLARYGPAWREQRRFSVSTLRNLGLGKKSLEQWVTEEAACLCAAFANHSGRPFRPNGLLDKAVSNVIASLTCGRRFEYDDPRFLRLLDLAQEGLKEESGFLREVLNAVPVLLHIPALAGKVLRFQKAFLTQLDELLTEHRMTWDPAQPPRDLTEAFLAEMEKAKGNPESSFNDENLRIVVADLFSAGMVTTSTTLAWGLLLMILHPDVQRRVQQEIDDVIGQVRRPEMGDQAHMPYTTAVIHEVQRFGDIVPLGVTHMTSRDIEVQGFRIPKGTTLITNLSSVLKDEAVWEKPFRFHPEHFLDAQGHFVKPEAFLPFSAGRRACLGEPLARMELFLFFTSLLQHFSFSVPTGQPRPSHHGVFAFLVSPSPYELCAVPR

EC50 ([1]; read-out: EC50)	inhibition at 1 µM (CYP2D6 [2])	inhibition at 10 µM (CYP2D6 [3])	remaining at 0.5 h, 1 µM [6]	remaining at 0.5 h, 1 µM [7]	EC50 ([1]; hek293)	SMILES	inhibition at 1 µM (hERG [4])	inhibition at 10 µM (hERG [5])	Activity (Rattus norvegicus)
36.4 nM	6%	36%	87%	45%		C[C@@H](NCC1CN(c2cccc(OCC(=O)O)c2)c2ccccc2O1)c1cccc2ccccc12 (stereo partly specified)	43%	66%	
					Not Active	C[C@@H](NCC1CN(c2ccccc2C(=O)O)c2ccccc2O1)c1cccc2ccccc12.Cl (mixture of isomers)			
114 nM						C[C@@H](NCC1CN(c2ccccc2)c2ccccc2O1)c1cccc2ccccc12 (mixture of isomers; form 2)			
	85%	87%	5%	2%		C[C@@H](NCC1CN(c2ccccn2)c2ccccc2O1)c1cccc2ccccc12 (stereo partly specified)			
71.4 nM						Cc1ccc(N2CC(CN[C@H](C)c3cccc4ccccc34)Oc3ccccc32)cc1C(=O)O (mixture of isomers)			
	5%	25%	40%	94%		C[C@@H](NC[C@H]1C[C@@H](c2ccc(F)c(C(=O)O)c2)c2ccccc2O1)c1cccc2ccccc12			
	92%	93%	0%	5%		C[C@@H](NCC1CN(C)c2ccccc2O1)c1cccc2ccccc12 (stereo partly specified)	13%	42%	
169 nM						Cc1cc(C(=O)O)cc(N2CC(CN[C@H](C)c3cccc4ccccc34)Oc3ccccc32)c1 (mixture of isomers; form 2)			
3.7 nM	7%	32%	62%	74%		Cc1ccc([C@H]2C[C@@H](CN[C@H](C)c3cccc4ccccc34)Oc3ccccc32)cc1C(=O)O	9%	1%	
	7%	25%	52%	47%		Cc1c(C(=O)O)cccc1[C@@H]1C[C@H](CN[C@H](C)c2cccc3ccccc23)Oc2ccccc21			
	7%	36%	52%	80%		Cc1ccc(C(=O)O)cc1[C@@H]1C[C@H](CN[C@H](C)c2cccc3ccccc23)Oc2ccccc21	5%	2%	
104 nM						C[C@@H](NCC1CN(c2cccc(CC(=O)O)c2)c2ccccc2O1)c1cccc2ccccc12 (stereo partly specified)			
	8%	24%	31%	57%		C[C@@H](NC[C@H]1C[C@H](c2cccc(C(=O)O)c2)c2ccccc2O1)c1cccc2ccccc12			
90 nM						C[C@@H](NCC1CN(C(=O)c2ccccc2)c2ccccc2O1)c1cccc2ccccc12 (mixture of isomers; form 2)			
	17%	35%	31%	42%		C[C@@H](NC[C@H]1C[C@@H](c2cccc(C(=O)O)c2)c2ccccc2O1)c1cccc2ccccc12			
> 90 nM						COc1ccc(N2CC(CN[C@H](C)c3cccc4ccccc34)Oc3ccccc32)cc1C(=O)O (mixture of isomers; form 2)			

EC50 ([1]; read-out: EC50)	inhibition at 1 µM (CYP2D6 [2])	inhibition at 10 µM (CYP2D6 [3])	remaining at 0.5 h, 1 µM [6]	remaining at 0.5 h, 1 µM [7]	EC50 ([1]; hek293)	SMILES	inhibition at 1 µM (hERG [4])	inhibition at 10 µM (hERG [5])	Activity (Rattus norvegicus)
33.6 nM	8%	41%	47%	74%		Cc1ccc([C@@H]2C[C@@H](CN[C@H](C)c3cccc4ccccc34)Oc3ccccc32)cc1C(=O)O	4%	-1%	
53.4 nM	87%		3%	1%		C[C@@H](NCC1CN(c2ccccc2)c2ccccc2O1)c1cccc2ccccc12 (mixture of isomers; form 1)	14%	26%	
						Cc1ccc(N2CC(CN[C@H](C)c3cccc4ccccc34)Oc3ccccc32)cc1C(=O)O (stereo partly specified)			Dose-Dependent Effect
	94%	94%	0%	18%		C[C@@H](NCC1CNc2ccccc2O1)c1cccc2ccccc12 (stereo partly specified)	19%	97%	
			61%	6%		C[C@@H](NCC1CN(c2ccc(F)c(C(=O)O)c2)c2ccccc2O1)c1cccc2ccccc12 (mixture of isomers; form 1)	5%	21%	
	78%	82%	5%	10%		C[C@@H](NCC1CN(CC(F)(F)F)c2ccccc2O1)c1cccc2ccccc12 (stereo partly specified)			
70.4 nM					Not Active	C[C@@H](NCC1CN(c2cccc(CCC(=O)O)c2)c2ccccc2O1)c1cccc2ccccc12.Cl (mixture of isomers)			
32.8 nM	27%	41%	36%	49%		C[C@@H](NCC1CN(c2cccc(C(=O)O)c2)c2ccccc2O1)c1cccc2ccccc12 (mixture of isomers; form 1)	-1%	-8%	
	0%	0%	88%	77%		COc1ccc([C@@H]2C[C@H](CN[C@H](C)c3cccc4ccccc34)Oc3ccccc32)cc1C(=O)O	-3%	-4%	
> 300 nM						COc1ccc(N2CC(CN[C@H](C)c3cccc4ccccc34)Oc3ccccc32)cc1C(=O)O (mixture of isomers; form 1)			
58.5 nM						Cc1ccc([C@H]2C[C@H](CN[C@H](C)c3cccc4ccccc34)Oc3ccccc32)cc1C(=O)O			
146 nM						C[C@@H](NCC1CN(c2cccc(C(=O)O)c2)c2ccccc2O1)c1cccc2ccccc12 (mixture of isomers; form 2)			
21 nM	7%	72%	0%	3%		C[C@@H](NCC1CN(C(=O)c2ccccc2)c2ccccc2O1)c1cccc2ccccc12 (mixture of isomers; form 1)	16%	52%	
84.1 nM						Cc1cc(C(=O)O)cc(N2CC(CN[C@H](C)c3cccc4ccccc34)Oc3ccccc32)c1 (mixture of isomers; form 1)			
64.9 nM	65%	65%	28%	34%		C[C@@H](NCC1CN(c2ccc(C(=O)O)cc2)c2ccccc2O1)c1cccc2ccccc12 (stereo partly specified)	5%	-43%	
8.3 nM	0%	33%	25%	80%		Cc1cc(C(=O)O)cc([C@@H]2C[C@H](CN[C@H](C)c3cccc4ccccc34)Oc3ccccc32)c1	0%	6%	
